Among the data in patent US8541380B2, “C-aryl glucoside SGLT2 inhibitors and pharmaceutical compositions comprising same” (Green Cross Corporation, priority 2009, dated 2013) are IC50 values, retold here.

By IC50 is commonly meant the concentration that gives 50% inhibition. Low values mean higher potency, high ones lower potency.

Chain of human SGLT2 (P31639 whole entry): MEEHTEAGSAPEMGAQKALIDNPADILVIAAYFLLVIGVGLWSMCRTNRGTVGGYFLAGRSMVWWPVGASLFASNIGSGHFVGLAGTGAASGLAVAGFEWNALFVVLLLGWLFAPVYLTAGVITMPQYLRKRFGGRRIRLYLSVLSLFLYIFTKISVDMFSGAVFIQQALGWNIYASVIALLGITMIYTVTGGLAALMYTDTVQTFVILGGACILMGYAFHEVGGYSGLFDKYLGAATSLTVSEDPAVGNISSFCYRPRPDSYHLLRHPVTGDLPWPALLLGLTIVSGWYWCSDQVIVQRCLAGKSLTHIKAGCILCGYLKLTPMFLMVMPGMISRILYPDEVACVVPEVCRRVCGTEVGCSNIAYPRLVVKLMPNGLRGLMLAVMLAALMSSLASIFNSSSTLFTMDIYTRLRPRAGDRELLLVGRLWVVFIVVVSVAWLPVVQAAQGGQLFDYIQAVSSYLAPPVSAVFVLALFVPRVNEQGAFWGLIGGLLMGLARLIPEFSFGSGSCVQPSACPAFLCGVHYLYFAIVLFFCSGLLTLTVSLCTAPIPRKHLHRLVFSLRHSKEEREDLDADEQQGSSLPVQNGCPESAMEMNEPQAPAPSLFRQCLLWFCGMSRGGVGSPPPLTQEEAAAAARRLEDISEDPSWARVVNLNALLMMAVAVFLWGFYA

The test concerns the target human SGLT2 (Homo sapiens (Human), UniProt P31639). The experiment in a line: hSGLT2 inhibitory activity, sodium-dependent 14C-AMG glucose transport assay in CHO cells expressing hSGLT2. It is filed as cell-based. The following applies: 14C-AMG uptake, CHO cells expressing hSGLT2, 37° C. for 2 h. An excerpt:
Human SGLT2 (hSGLT2) gene was amplified by PCR from cDNA-Human Adult Normal Tissue Kidney (Invitrogen, Carlsbad, Calif.). The hSGLT2 sequence was cloned into pcDNA3.1(+) for mammalian expression and were stably transfected into Chinese hamster ovary (CHO) cells. SGLT2-expressing clones were selected based on resistance to G418 antibiotic (Geneticin®, Invitrogen, Carlsbad, Calif.) and activity in the ^14C-α-methyl-D-glucopyranoside (^14C-AMG) uptake assay.
For sodium-dependent glucose transport assay, cells expressing hSGLT2 were seeded into a 96-well culture plate at a density of 5×10^4 cells/well in RPMI medium 1640 containing 10% fetal bovine serum. The cells were used 1 day after plating. They were incubated in pretreatment buffer (10 mM HEPES, 5 mM Tris, 140 mM choline chloride, 2 mM KCl, 1 mM CaCl2, and 1 mM MgCl2, pH 7.4) at 37° C. for 10 min. They were then incubated in uptake buffer (10 mM HEPES, 5 mM Tris, 140 mM NaCl, 2 mM KCl, 1 mM CaCl2, 1 mM MgCl2, and 1 mM ^14C-nonlabeled AMG pH 7.4) containing ^14C-labeled (8 uM) and inhibitor or dimethyl sulfoxide (DMSO) vehicle at 37° C. for 2 h. Cells were washed twice with washing buffer (pretreatment buffer containing 10 mM AMG at room temperature) and then the radioactivity was measured using a liquid scintillation counter.
As for `OC[C@H]1OC(c2ccc(Cl)c(Cc3nnc(-c4ccncc4)s3)c2)[C@H](O)[C@@H](O)[C@@H]1O` (stereo partly drawn) [Example 20, (3R,4R,5S,6R)-2-(4-Chloro-3-((5-(pyridin-4-yl)-1,3,4-thiadiazol-2-yl)methyl)phenyl)-6-(hydroxymethyl)-tetrahydro-2H-pyran-3,4,5-triol], the 50% inhibitory concentration (IC50) amounted to 53 nM. This lies in the double-digit nanomolar range.

The compound `OC[C@H]1OC(c2ccc(Cl)c(Cc3nnc(-c4cccnc4)s3)c2)[C@H](O)[C@@H](O)[C@@H]1O` (stereo partly drawn) [Example 21, (3R,4R,5S,6R)-2-(4-Chloro-3-((5-(pyridin-3-yl)-1,3,4-thiadiazol-2-yl)methyl)phenyl)-6-(hydroxymethyl)-tetrahydro-2H-pyran-3,4,5-triol] yielded a concentration for half-maximal inhibition (IC50) of 45.3 nM.

With `Cc1ccc(-c2nnc(Cc3cc(C4O[C@H](CO)[C@@H](O)[C@H](O)[C@H]4O)ccc3Cl)s2)cc1` (stereo partly drawn) [Example 22, (3R,4R,5S,6R)-2-(4-chloro-3-((5-p-tolyl-1,3,4-thiadiazol-2-yl)methyl)phenyl)-6-(hydroxymethyl)-tetrahydro-2H-pyran-3,4,5-triol], it took 103 nM to reach half-maximal inhibition (IC50).

Compound `CCCc1ccc(-c2nnc(Cc3cc(C4O[C@H](CO)[C@@H](O)[C@H](O)[C@H]4O)ccc3Cl)s2)cc1` (stereo partly drawn) [Example 23, (3R,4R,5S,6R)-2-(4-Chloro-3-((5-(4-propylphenyl)-1,3,4-thiadiazol-2-yl)methyl)phenyl)-6-(hydroxymethyl)-tetrahydro-2H-pyran-3,4,5-triol] returned an IC50 of 24.9 nM.

`OC[C@H]1OC(c2ccc(Cl)c(Cc3nnc(C4CCCCC4)s3)c2)[C@H](O)[C@@H](O)[C@@H]1O` (stereo partly drawn) [Example 24, (3R,4R,5S,6R)-2-(4-Chloro-3-((5-cyclohexyl-1,3,4-thiadiazol-2-yl)methyl)phenyl)-6-(hydroxymethyl)-tetrahydro-2H-pyran-3,4,5-triol] returned a 50% inhibitory concentration (IC50) of 542 nM.

With `CC1CCC(Cc2nnc(Cc3cc(C4O[C@H](CO)[C@@H](O)[C@H](O)[C@H]4O)ccc3Cl)s2)CC1` (stereo partly drawn) [Example 25, (3R,4R,5S,6R)-2-(4-Chloro-3-((5-((4-methylcyclohexyl)methyl)-1,3,4-thiadiazol-2-yl)methyl)phenyl)-6-(hydroxymethyl)-tetrahydro-2H-pyran-3,4,5-triol], half-maximal inhibition (IC50) was put at 460 nM.

In the case of `CC(Cc1nnc(Cc2cc(C3O[C@H](CO)[C@@H](O)[C@H](O)[C@H]3O)ccc2Cl)s1)c1ccccc1` (stereo partly drawn) [Example 26, (3R,4R,5S,6R)-2-(4-Chloro-3-((5-(2-phenylpropyl)-1,3,4-thiadiazol-2-yl)methyl)phenyl)-6-(hydroxymethyl)-tetrahydro-2H-pyran-3,4,5-triol], the IC50 was determined as 548 nM.

Consider `OC[C@H]1OC(c2ccc(Cl)c(Cc3nnc(/C=C/c4ccccc4)s3)c2)[C@H](O)[C@@H](O)[C@@H]1O` (stereo partly drawn) [Example 27, (3R,4R,5S,6R,E)-2-(4-Chloro-3-((5-styryl-1,3,4-thiadiazol-2-yl)methyl)phenyl)-6-(hydroxymethyl)-tetrahydro-2H-pyran-3,4,5-triol], for which half-maximal inhibition (IC50) was put at 730 nM.

On to `OC[C@H]1O[C@@H](c2ccc(Cl)c(Cc3nnc(-c4ccccc4)s3)c2)[C@H](O)[C@@H](O)[C@@H]1O` [Example 28, (2S,3R,4R,5S,6R)-2-(4-Chloro-3-((5-phenyl-1,3,4-thiadiazol-2-yl)methyl)phenyl)-6-(hydroxymethyl)-tetrahydro-2H-pyran-3,4,5-triol], for which the IC50 worked out at 16.6 nM.

Compound `OC[C@H]1O[C@@H](c2ccc(Cl)c(Cc3nnc(-c4ccc(Cl)cc4)s3)c2)[C@H](O)[C@@H](O)[C@@H]1O` [Example 29, (2S,3R,4R,5S,6R)-2-(4-chloro-3-((5-(4-Chlorophenyl)-1,3,4-thiadiazol-2-yl)methyl)phenyl)-6-(hydroxymethyl)-tetrahydro-2H-pyran-3,4,5-triol] returned an IC50 of 126 nM.

Regarding `OC[C@H]1O[C@@H](c2ccc(Cl)c(Cc3nnc(-c4cc5ccccc5o4)s3)c2)[C@H](O)[C@@H](O)[C@@H]1O` [Example 30, (2S,3R,4R,5S,6R)-2-(3-((5-(Benzofuran-2-yl)-1,3,4-thiadiazol-2-yl)methyl)-4-chlorophenyl)-6-(hydroxymethyl)-tetrahydro-2H-pyran-3,4,5-triol], the concentration for half-maximal inhibition (IC50) was 249 nM.

`CCCc1nnc(Cc2cc([C@@H]3O[C@H](CO)[C@@H](O)[C@H](O)[C@H]3O)ccc2Cl)s1` [Example 31, (2S,3R,4R,5S,6R)-2-(4-Chloro-3-((5-propyl-1,3,4-thiadiazol-2-yl)methyl)phenyl)-6-(hydroxymethyl)-tetrahydro-2H-pyran-3,4,5-triol] registered an IC50 of 214 nM.

As for `CCCCc1nnc(Cc2cc([C@@H]3O[C@H](CO)[C@@H](O)[C@H](O)[C@H]3O)ccc2Cl)s1` [Example 32, (2S,3R,4R,5S,6R)-2-(3-((5-Butyl-1,3,4-thiadiazol-2-yl)methyl)-4-chlorophenyl)-6-(hydroxymethyl)-tetrahydro-2H-pyran-3,4,5-triol], the concentration for half-maximal inhibition (IC50) was 379 nM.

`CCCCCc1nnc(Cc2cc([C@@H]3O[C@H](CO)[C@@H](O)[C@H](O)[C@H]3O)ccc2Cl)s1` [Example 33, (2S,3R,4R,5S,6R)-2-(4-Chloro-3-((5-pentyl-1,3,4-thiadiazol-2-yl)methyl)phenyl)-6-(hydroxymethyl)-tetrahydro-2H-pyran-3,4,5-triol] yielded an IC50 of 353 nM. The IC50 values of the last two compounds are within 1.5-fold of each other.

`CCCCCCCc1nnc(Cc2cc([C@@H]3O[C@H](CO)[C@@H](O)[C@H](O)[C@H]3O)ccc2Cl)s1` [Example 34, (2S,3R,4R,5S,6R)-2-(4-Chloro-3-((5-heptyl-1,3,4-thiadiazol-2-yl)methyl)phenyl)-6-(hydroxymethyl)-tetrahydro-2H-pyran-3,4,5-triol] returned a concentration for half-maximal inhibition (IC50) of 122 nM.

`OC[C@H]1O[C@@H](c2ccc(Cl)c(Cc3nnc(-c4ccc(-c5ccccc5)o4)s3)c2)[C@H](O)[C@@H](O)[C@@H]1O` [Example 37, (2S,3R,4R,5S,6R)-2-(4-Chloro-3-((5-(5-phenylfuran-2-yl)-1,3,4-thiadiazol-2-yl)methyl)phenyl)-6-(hydroxymethyl)-tetrahydro-2H-pyran-3,4,5-triol] came in with an IC50 of 10.6 nM.

The compound `OC[C@H]1O[C@@H](c2ccc(Cl)c(Cc3nnc(C(F)(F)F)s3)c2)[C@H](O)[C@@H](O)[C@@H]1O` [Example 38, (2S,3R,4R,5S,6R)-2-(4-Chloro-3-((5-(trifluoromethyl)-1,3,4-thiadiazol-2-yl)methyl)phenyl)-6-(hydroxymethyl)tetrahydro-2H-pyran-3,4,5-triol] showed a 50% inhibitory concentration (IC50) of 155 nM.

Regarding `OC[C@H]1O[C@@H](c2ccc(Cl)c(Cc3nnc(CC(F)(F)F)s3)c2)[C@H](O)[C@@H](O)[C@@H]1O` [Example 39, (2S,3R,4R,5S,6R)-2-(4-Chloro-3-((5-(2,2,2-trifluoroethyl)-1,3,4-thiadiazol-2-yl)methyl)phenyl)-6-(hydroxymethyl)tetrahydro-2H-pyran-3,4,5-triol], half-maximal inhibition (IC50) was put at 758 nM.

As to `CSc1nnc(Cc2cc([C@@H]3O[C@H](CO)[C@@H](O)[C@H](O)[C@H]3O)ccc2Cl)s1` [Example 40, (2S,3R,4R,5S,6R)-2-(4-Chloro-3-((5-(methylthio)-1,3,4-thiadiazol-2-yl)methyl)phenyl)-6-(hydroxymethyl)-tetrahydro-2H-pyran-3,4,5-triol], the midpoint of inhibition, the IC50, lay at 10.9 nM. Compared with the last compound, the IC50 is about 70-fold lower.

Compound `COc1nnc(Cc2cc([C@@H]3O[C@H](CO)[C@@H](O)[C@H](O)[C@H]3O)ccc2Cl)s1` [Example 41, (2S,3R,4R,5S,6R)-2-(4-Chloro-3-((5-methoxy-1,3,4-thiadiazol-2-yl)methyl)phenyl)-6-(hydroxymethyl)-tetrahydro-2H-pyran-3,4,5-triol] gave an IC50 of 146 nM.
